Data set [1] relates to SSTR2. More on the design: method as in Hou et al. [2022]; Zhu et al. [2020]; Fani et al. [2017]. As to conditions: compared to DOTA-TATE; ref Hou et al. [2022]; Zhu et al. [2020]; Fani et al. [2017]; cited from earlier work.
Data set [2] in a line: in vitro. The class given is in vitro ADME. To be noted: mouse, serum. The procedure:
(§1) Haarlerbergweg, The Netherlands) (250 and 100 µL, respectively) at 37 °C. […] In mouse serum, the proteins were precipitated by adding an aliquot of the radiotracer to an equal volume of acetonitrile. The vial was vortexed vigorously and centrifuged for 20 min at 10,000 rpm. Stability studies were monitored by radio-HPLC (Additional file 1: Figs. S5 and S6).

The format of data set [3] is physicochemical. As to conditions: 37 °C, radio-HPLC, n = 1. How it is done:
as §1

For data set [4] the following is noted: in vivo; cited from earlier work.

Where two headings read alike, the source gives them in different places. Marks after values point to notes of the source that are not given here. Bridge positions count the residues as written; N and C are the ends. Square brackets hold non-standard residues; d marks the D form. Peptide text beside a SMILES is read from it. * marks the point of attachment. DOTA = O=C(O)CN1CCN(CC(=O)O)CCN(CC(=O)*)CCN(CC(=O)O)CC1; dPhe(4-NHCONH2) = NC(=O)Nc1ccc(C[C@@H](N)C(=O)O)cc1; Dihydroorotyl(S) = O=C1C[C@@H](C(=O)*)NC(=O)N1; Phe(4-Cl) = N[C@@H](Cc1ccc(Cl)cc1)C(=O)O; Phe(4-NH2) = Nc1ccc(C[C@H](N)C(=O)O)cc1

What is called amount remaining is the share of the starting amount still present when the sample was taken. Low values mean more turnover, high ones less turnover.

Turning to `C[C@@H](O)[C@@H]1NC(=O)[C@H](CCCCN)NC(=O)[C@@H](Cc2ccc(NC(N)=O)cc2)NC(=O)[C@H](Cc2ccc(NC(=O)[C@@H]3CC(=O)NC(=O)N3)cc2)NC(=O)[C@H](NC(=O)[C@H](Cc2ccc(Cl)cc2)NC(=O)CN2CCN(CC(=O)O)CCN(CC(=O)O)CCN(CC(=O)O)CC2)CSSC[C@@H](C(=O)N[C@H](Cc2ccc(O)cc2)C(N)=O)NC1=O` [DOTA-JR11] ({DOTA}-[Phe(4-Cl)][dC][Phe(4-NH2)](Dihydroorotyl(S))[dPhe(4-NHCONH2)]KTC[dY]-NH2; disulfide 2-7; C-terminus assumed), the “binding affinity to SSTR2” value in data set [1] is “lower binding affinity”.

In data set [2], `C[C@@H](O)[C@@H]1NC(=O)[C@H](CCCCN)NC(=O)[C@@H](Cc2ccc(NC(N)=O)cc2)NC(=O)[C@H](Cc2ccc(NC(=O)[C@@H]3CC(=O)NC(=O)N3)cc2)NC(=O)[C@H](NC(=O)[C@H](Cc2ccc(Cl)cc2)NC(=O)CN2CCN(CC(=O)O)CCN(CC(=O)O)CCN(CC(=O)O)CC2)CSSC[C@@H](C(=O)N[C@H](Cc2ccc(O)cc2)C(N)=O)NC1=O` [[^177Lu]Lu-DOTA-JR11, metal not drawn] ({DOTA}-[Phe(4-Cl)][dC][Phe(4-NH2)](Dihydroorotyl(S))[dPhe(4-NHCONH2)]KTC[dY]-NH2; disulfide 2-7 (inferred); C-terminus assumed) came in with an amount remaining at 2 h, 12 MBq/mL of 94.5% and an amount remaining at 24 h, 12 MBq/mL of 93.7%.

Regarding `C[C@@H](O)[C@@H]1NC(=O)[C@H](CCCCN)NC(=O)[C@@H](Cc2ccc(NC(N)=O)cc2)NC(=O)[C@H](Cc2ccc(NC(=O)[C@@H]3CC(=O)NC(=O)N3)cc2)NC(=O)[C@H](NC(=O)[C@H](Cc2ccc(Cl)cc2)NC(=O)CN2CCN(CC(=O)O)CCN(CC(=O)O)CCN(CC(=O)O)CC2)CSSC[C@@H](C(=O)N[C@H](Cc2ccc(O)cc2)C(N)=O)NC1=O` [[^225Ac]Ac-DOTA-JR11] [metal not drawn] ({DOTA}-[Phe(4-Cl)][dC][Phe(4-NH2)](Dihydroorotyl(S))[dPhe(4-NHCONH2)]KTC[dY]-NH2; disulfide 2-7 (inferred); C-terminus assumed), the “PBS (%) intact radiolabeled peptide” value in data set [3] (radiolabeling condition 1, 22 h, 50 kBq in 500 µL PBS) is 76.9^a %; in data set [3] (radiolabeling condition 2 (without L-melatonin), 24 h, 50 kBq in 500 µL PBS) it was 56.6^b %; in data set [3] (radiolabeling condition 3 (with L-melatonin), 27 h, 50 kBq in 500 µL PBS), 81.0^c %.

As for `C[C@@H](O)[C@@H]1NC(=O)[C@H](CCCCN)NC(=O)[C@@H](Cc2ccc(NC(N)=O)cc2)NC(=O)[C@H](Cc2ccc(NC(=O)[C@@H]3CC(=O)NC(=O)N3)cc2)NC(=O)[C@H](NC(=O)[C@H](Cc2ccc(Cl)cc2)NC(=O)CN2CCN(CC(=O)O)CCN(CC(=O)O)CCN(CC(=O)O)CC2)CSSC[C@@H](C(=O)N[C@H](Cc2ccc(O)cc2)C(N)=O)NC1=O` [[^225Ac]Ac-DOTA-JR11, metal not drawn] ({DOTA}-[Phe(4-Cl)][dC][Phe(4-NH2)](Dihydroorotyl(S))[dPhe(4-NHCONH2)]KTC[dY]-NH2; disulfide 2-7 (inferred); C-terminus assumed), in data set [2], the share remaining at 22 h, 200 kBq/mL is 80.9%; the fraction remaining at 24 h, 200 kBq/mL turned out to be 81.4%; the fraction remaining at 27 h, 200 kBq/mL worked out at 81%.

As for `C[C@@H](O)[C@@H]1NC(=O)[C@H](CCCCN)NC(=O)[C@@H](Cc2ccc(NC(N)=O)cc2)NC(=O)[C@H](Cc2ccc(NC(=O)[C@@H]3CC(=O)NC(=O)N3)cc2)NC(=O)[C@H](NC(=O)[C@H](Cc2ccc(Cl)cc2)NC(=O)CN2CCN(CC(=O)O)CCN(CC(=O)O)CCN(CC(=O)O)CC2)CSSC[C@@H](C(=O)N[C@H](Cc2ccc(O)cc2)C(N)=O)NC1=O` [[^177Lu]Lu-DOTA-JR11] [metal not drawn] ({DOTA}-[Phe(4-Cl)][dC][Phe(4-NH2)](Dihydroorotyl(S))[dPhe(4-NHCONH2)]KTC[dY]-NH2; disulfide 2-7 (inferred); C-terminus assumed), the “PBS (%) intact radiolabeled peptide” value in data set [3] (2 h, 1.2 MBq in 200 µL PBS) was found to be 96.5%; in data set [3] (24 h, 1.2 MBq in 200 µL PBS), 96.8%. For the same molecule, the hematologic toxicity entry in data set [4] is reported as “severe grade 4 hematologic toxicity”.

Source of the values: PMC10313624 (EJNMMI Radiopharmacy and Chemistry, 2023).
